In ChEMBL document CHEMBL4229547, “Design, synthesis and biological mechanisms research on 1,2,3-triazole derivatives of Jiyuan Oridonin A” (Bioorg Med Chem, 2018):

Tested on: EC9706
Assay: Antiproliferative activity against human EC9706 cells after 48 hrs by MTT assay
Assay type: functional, cell-based
Conditions: EC9706, 48 h

Compound	IC50 [µM]
C=C1C(=O)[C@]23[C@H](O)[C@H]1C[C@H](O)[C@H]2[C@]12CCCC(C)(C)[C@H]1C[C@H]3O[C@@H]2OCCc1cn(Cc2cc(OC)c(OC)c(OC)c2)nn1	9.5
C=C1C(=O)[C@]23[C@H](O)[C@H]1C[C@H](O)[C@H]2[C@]12CCCC(C)(C)[C@H]1C[C@H]3O[C@@H]2OCCn1cc(-c2ccccc2)nn1	5.32
C=C1C(=O)[C@]23[C@H](O)[C@H]1C[C@H](O)[C@H]2[C@]12CCCC(C)(C)[C@H]1C[C@H]3O[C@@H]2OCCc1cn(Cc2ccccc2)nn1	7.54
C=C1C(=O)[C@]23[C@H](O)[C@H]1C[C@H](O)[C@H]2[C@]12CCCC(C)(C)[C@H]1C[C@H]3O[C@@H]2OCCn1cc(C2CC2)nn1	11.4
C=C1C(=O)[C@]23[C@H](O)[C@H]1C[C@H](O)[C@H]2[C@]12CCCC(C)(C)[C@H]1C[C@H]3O[C@@H]2OCCc1cn(Cc2ccc(C)cc2)nn1	6.1
C#CCO[C@H]1O[C@@H]2C[C@@H]3C(C)(C)CCC[C@]13[C@@H]1[C@@H](O)C[C@H]3C(=C)C(=O)[C@@]21[C@@H]3O	7.87
C=C1C(=O)[C@]23[C@H](O)[C@H]1C[C@H](O)[C@H]2[C@]12CCCC(C)(C)[C@H]1C[C@H]3O[C@@H]2OCCc1cn(Cc2ccc(Cl)c(Cl)c2)nn1	4.21

Tested on: PC-3
Assay: Antiproliferative activity against human PC3 cells after 48 hrs by MTT assay
Assay type: functional, cell-based
Conditions: PC-3, 48 h

IC50 [µM]	Compound
11.2	C=C1C(=O)[C@]23[C@H](O)[C@H]1C[C@H](O)[C@H]2[C@]12CCCC(C)(C)[C@H]1C[C@H]3O[C@@H]2OCCn1cc(-c2ccccc2)nn1
3.79	C=C1C(=O)[C@]23[C@H](O)[C@H]1C[C@H](O)[C@H]2[C@]12CCCC(C)(C)[C@H]1C[C@H]3O[C@@H]2OCCn1cc(C2CC2)nn1
4.9	C=C1C(=O)[C@]23[C@H](O)[C@H]1C[C@H](O)[C@H]2[C@]12CCCC(C)(C)[C@H]1C[C@H]3O[C@@H]2OCCc1cn(Cc2ccc(C)cc2)nn1
3.92	C#CCO[C@H]1O[C@@H]2C[C@@H]3C(C)(C)CCC[C@]13[C@@H]1[C@@H](O)C[C@H]3C(=C)C(=O)[C@@]21[C@@H]3O

Tested on: SMMC-7721
Assay: Antiproliferative activity against human SMMC7721 cells after 48 hrs by MTT assay
Assay type: functional, cell-based
Conditions: SMMC-7721, 48 h

Compound	IC50 [µM]
C=C1C(=O)[C@]23[C@H](O)[C@H]1C[C@H](O)[C@H]2[C@]12CCCC(C)(C)[C@H]1C[C@H]3O[C@@H]2OCCc1cn(Cc2cc(OC)c(OC)c(OC)c2)nn1	9.03
C=C1C(=O)[C@]23[C@H](O)[C@H]1C[C@H](O)[C@H]2[C@]12CCCC(C)(C)[C@H]1C[C@H]3O[C@@H]2OCCn1cc(-c2ccccc2)nn1	6.07
C=C1C(=O)[C@]23[C@H](O)[C@H]1C[C@H](O)[C@H]2[C@]12CCCC(C)(C)[C@H]1C[C@H]3O[C@@H]2OCCn1cc(C2CC2)nn1	9.66
C#CCO[C@H]1O[C@@H]2C[C@@H]3C(C)(C)CCC[C@]13[C@@H]1[C@@H](O)C[C@H]3C(=C)C(=O)[C@@]21[C@@H]3O	15.3

These reach a lower IC50. Values come first.

IC50 [µM]	Compound
5.79	C=C1C(=O)[C@]23[C@H](O)[C@H]1C[C@H](O)[C@H]2[C@]12CCCC(C)(C)[C@H]1C[C@H]3O[C@@H]2OCCc1cn(Cc2ccccc2)nn1
5.68	C=C1C(=O)[C@]23[C@H](O)[C@H]1C[C@H](O)[C@H]2[C@]12CCCC(C)(C)[C@H]1C[C@H]3O[C@@H]2OCCc1cn(Cc2ccc(C)cc2)nn1
3.76	C=C1C(=O)[C@]23[C@H](O)[C@H]1C[C@H](O)[C@H]2[C@]12CCCC(C)(C)[C@H]1C[C@H]3O[C@@H]2OCCc1cn(Cc2ccc(Cl)c(Cl)c2)nn1

Tested on: MCF7
Assay: Antiproliferative activity against human MCF7 cells after 48 hrs by MTT assay
Assay type: functional, cell-based
Conditions: MCF7, 48 h

Compound	IC50 [µM]
C=C1C(=O)[C@]23[C@H](O)[C@H]1C[C@H](O)[C@H]2[C@]12CCCC(C)(C)[C@H]1C[C@H]3O[C@@H]2OCCc1cn(Cc2cc(OC)c(OC)c(OC)c2)nn1	8.79
C=C1C(=O)[C@]23[C@H](O)[C@H]1C[C@H](O)[C@H]2[C@]12CCCC(C)(C)[C@H]1C[C@H]3O[C@@H]2OCCn1cc(-c2ccccc2)nn1	8.95
C=C1C(=O)[C@]23[C@H](O)[C@H]1C[C@H](O)[C@H]2[C@]12CCCC(C)(C)[C@H]1C[C@H]3O[C@@H]2OCCn1cc(C2CC2)nn1	11
C#CCO[C@H]1O[C@@H]2C[C@@H]3C(C)(C)CCC[C@]13[C@@H]1[C@@H](O)C[C@H]3C(=C)C(=O)[C@@]21[C@@H]3O	14.6

Next, values leading:

IC50 [µM]	Compound
9.45	C=C1C(=O)[C@]23[C@H](O)[C@H]1C[C@H](O)[C@H]2[C@]12CCCC(C)(C)[C@H]1C[C@H]3O[C@@H]2OCCc1cn(Cc2ccccc2)nn1
7.86	C=C1C(=O)[C@]23[C@H](O)[C@H]1C[C@H](O)[C@H]2[C@]12CCCC(C)(C)[C@H]1C[C@H]3O[C@@H]2OCCc1cn(Cc2ccc(C)cc2)nn1
6.85	C=C1C(=O)[C@]23[C@H](O)[C@H]1C[C@H](O)[C@H]2[C@]12CCCC(C)(C)[C@H]1C[C@H]3O[C@@H]2OCCc1cn(Cc2ccc(Cl)c(Cl)c2)nn1

Tested on: ECa-109 cell line
Assay: Antiproliferative activity against human ECA109 cells after 48 hrs by MTT assay
Assay type: functional, cell-based
Conditions: ECa-109, 48 h

Compound	IC50 [µM]
C=C1C(=O)[C@]23[C@H](O)[C@H]1C[C@H](O)[C@H]2[C@]12CCCC(C)(C)[C@H]1C[C@H]3O[C@@H]2OCCc1cn(Cc2cc(OC)c(OC)c(OC)c2)nn1	4.51
C=C1C(=O)[C@]23[C@H](O)[C@H]1C[C@H](O)[C@H]2[C@]12CCCC(C)(C)[C@H]1C[C@H]3O[C@@H]2OCCn1cc(-c2ccccc2)nn1	4.26
C=C1C(=O)[C@]23[C@H](O)[C@H]1C[C@H](O)[C@H]2[C@]12CCCC(C)(C)[C@H]1C[C@H]3O[C@@H]2OCCc1cn(Cc2ccccc2)nn1	3.51
C=C1C(=O)[C@]23[C@H](O)[C@H]1C[C@H](O)[C@H]2[C@]12CCCC(C)(C)[C@H]1C[C@H]3O[C@@H]2OCCn1cc(C2CC2)nn1	4.3
C=C1C(=O)[C@]23[C@H](O)[C@H]1C[C@H](O)[C@H]2[C@]12CCCC(C)(C)[C@H]1C[C@H]3O[C@@H]2OCCc1cn(Cc2ccc(C)cc2)nn1	2.12
C#CCO[C@H]1O[C@@H]2C[C@@H]3C(C)(C)CCC[C@]13[C@@H]1[C@@H](O)C[C@H]3C(=C)C(=O)[C@@]21[C@@H]3O	10.8
C=C1C(=O)[C@]23[C@H](O)[C@H]1C[C@H](O)[C@H]2[C@]12CCCC(C)(C)[C@H]1C[C@H]3O[C@@H]2OCCc1cn(Cc2ccc(Cl)c(Cl)c2)nn1	2.58

Tested on: MGC-803
Assay: Antiproliferative activity against human MGC803 cells after 48 hrs by MTT assay
Assay type: functional, cell-based
Conditions: MGC-803, 48 h

IC50 [µM]	Compound
9.62	C=C1C(=O)[C@]23[C@H](O)[C@H]1C[C@H](O)[C@H]2[C@]12CCCC(C)(C)[C@H]1C[C@H]3O[C@@H]2OCCn1cc(-c2ccccc2)nn1
4.58	C=C1C(=O)[C@]23[C@H](O)[C@H]1C[C@H](O)[C@H]2[C@]12CCCC(C)(C)[C@H]1C[C@H]3O[C@@H]2OCCn1cc(C2CC2)nn1
3.89	C=C1C(=O)[C@]23[C@H](O)[C@H]1C[C@H](O)[C@H]2[C@]12CCCC(C)(C)[C@H]1C[C@H]3O[C@@H]2OCCc1cn(Cc2ccc(C)cc2)nn1
3.77	C#CCO[C@H]1O[C@@H]2C[C@@H]3C(C)(C)CCC[C@]13[C@@H]1[C@@H](O)C[C@H]3C(=C)C(=O)[C@@]21[C@@H]3O
